From patent publication US8586588B2, “Aryl pyridazinone derivatives and their use as H3 receptor ligands” (Cephalon, Inc., priority 2006, dated 2013)
pKi: −log10 of the molar value.

Key:
[1] = molecular target: T1, human H3 receptor (Homo sapiens, UniProt Q9Y5N1); experiment: Human H3 radioligand binding ([3H]-N-alpha-methylhistamine, CHO cell membranes, SPA); details: Table A, binding constant as letter class
T1 construct: expressed in transfected cells
Procedure: (§1) Cell pellets were resuspended in 5 mM Tris-HCl, pH 7.5 with […] and a cocktail of protease inhibitors (Complete Protease Inhibition Tablets, Roche Diagnostics). Cells were disrupted using a polytron cell homogenizer and the suspension was centrifuged at 1000×g for 10 minutes at 4° C. The pellet was discarded and the supernatant centrifuged at 40,000×g for 30 min at 4° C. This membrane pellet was washed in membrane buffer containing 50 mM Tris-HCl, pH 7.5 with 0.6 mM EDTA, 5 mM MgCl2 and protease inhibitors, recentrifuged as above and the final pellet resuspended in membrane buffer plus 250 mM sucrose and frozen at −80° C.
(§2) Membranes were resuspended in 50 mM Tris HCl (pH 7.4), 5 mM MgCl2, 0.1% BSA. The membrane suspensions (10 μg protein per well) were incubated in a 96 well microtiter plate with [^3H]-N-alpha-methylhistamine (approximately 1 nM final concentration), test compounds at various concentrations (0.01 nM-30 μM) and scintillation proximity beads (Perkin Elmer, FlashBlueGPCR Scintillating Beads) in a final volume of 80 μl for 4 hours at room temperature, protected from light. Non-specific binding was determined in the presence of 10 μM clobenpropit. Radioligand bound to receptor, and therefore in proximity to the scintillation beads, was measured using a MicroBeta scintillation counter.

[2] = molecular target: T2, rat histamine H3 receptor (Rattus norvegicus, UniProt Q9QYN8); experiment: Rat H3 radioligand binding ([3H]-N-alpha-methylhistamine, CHO-A3 cell membranes, SPA); details: Table A, binding constant as letter class; read-out: Rat H3 Ki
T2 construct: encoding the entire 445-amino-acid rat histamine H3 receptor; expressed in transfected cells
T2 sequence (Q9QYN8 whole entry): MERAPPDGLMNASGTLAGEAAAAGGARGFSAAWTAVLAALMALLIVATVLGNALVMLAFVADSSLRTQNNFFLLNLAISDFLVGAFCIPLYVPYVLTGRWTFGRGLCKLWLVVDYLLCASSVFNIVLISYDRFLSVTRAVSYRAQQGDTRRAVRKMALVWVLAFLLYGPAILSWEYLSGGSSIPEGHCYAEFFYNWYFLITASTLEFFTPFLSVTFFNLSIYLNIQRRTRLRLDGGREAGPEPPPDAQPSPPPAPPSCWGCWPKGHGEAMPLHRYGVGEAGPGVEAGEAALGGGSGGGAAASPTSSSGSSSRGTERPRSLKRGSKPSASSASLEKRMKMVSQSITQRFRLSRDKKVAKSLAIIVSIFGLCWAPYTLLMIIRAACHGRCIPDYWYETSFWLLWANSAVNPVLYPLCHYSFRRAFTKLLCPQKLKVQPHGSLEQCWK
Procedure: as §1, with “This was engineered into the pIRES-neo3 mammalian expression vector, which was stably transfected into the CHO-A3 cell line (Euroscreen, Belgium), followed by clonal selection by limiting dilution. Cells were harvested and cell pellets were frozen (−80° C.). Cell pellets” for “Cell pellets”
as §2

T1 sequence (Q9Y5N1 whole entry): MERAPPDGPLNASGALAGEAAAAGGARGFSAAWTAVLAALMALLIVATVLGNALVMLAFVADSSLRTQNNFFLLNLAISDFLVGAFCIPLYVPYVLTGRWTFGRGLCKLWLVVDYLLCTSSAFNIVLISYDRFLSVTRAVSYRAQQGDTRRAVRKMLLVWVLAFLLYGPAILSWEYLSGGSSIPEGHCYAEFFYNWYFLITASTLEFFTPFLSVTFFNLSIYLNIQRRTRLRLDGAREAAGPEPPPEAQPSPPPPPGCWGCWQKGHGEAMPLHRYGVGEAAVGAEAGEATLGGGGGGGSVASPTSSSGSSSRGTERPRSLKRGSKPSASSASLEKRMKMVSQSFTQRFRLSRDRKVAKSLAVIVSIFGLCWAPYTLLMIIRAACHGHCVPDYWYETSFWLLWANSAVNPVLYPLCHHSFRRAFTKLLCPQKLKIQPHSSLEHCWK

| Compound | pKi [1] | pKi [2] |
| --- | --- | --- |
| CC(C)n1nc(-c2ccc(OCCCN3CCC[C@H]3C)cc2)c2sccc2c1=O [Example 22, 5-Isopropyl-7-{4-[3-((R)-2-methyl-pyrrolidin-1-yl)-propoxy]-phenyl}-5H-thieno[2,3-d]pyridazin-4-one] | 7.00 to 10.00 | 7.00 to 10.00 |
| CC1CCC(C)N1CCCOc1ccc(-c2nn(C(C)C)c(=O)c3ccsc23)cc1 (centres unmarked) [Example 23, 7-{4-[3-(2,5-Dimethyl-pyrrolidin-1-yl)-propoxy]-phenyl}-5-isopropyl-5H-thieno[2,3-d]pyridazin-4-one] | 7.00 to 10.00 | 6.30 to 7.00 |
| CC(C)n1nc(-c2ccc(OCCCN3CCCCC3)cc2)c2sccc2c1=O [Example 24, 5-Isopropyl-7-[4-(3-piperidin-1-yl-propoxy)-phenyl]-5H-thieno[2,3-d]pyridazin-4-one] | 7.00 to 10.00 | 7.00 to 10.00 |
| CC(C)n1nc(-c2ccc(OCCCN3CCCC(C)(C)C3)cc2)c2sccc2c1=O [Example 25, 7-{4-[3-(3,3-Dimethyl-piperidin-1-yl)-propoxy]-phenyl}-5-isopropyl-5H-thieno[2,3-d]pyridazin-4-one] | 6.30 to 7.00 | < 6.00 |
| CC(C)n1nc(-c2ccc(OCCCN3CCC(N4CCCC4)CC3)cc2)c2sccc2c1=O [Example 30, 5-Isopropyl-7-{4-[3-(4-pyrrolidin-1-yl-piperidin-1-yl)-propoxy]-phenyl}-5H-thieno[2,3-d]pyridazin-4-one] | 7.00 to 10.00 | 6.00 to 6.30 |
| CC(C)n1nc(-c2ccc(OCCCN3[C@H](C)CC[C@H]3C)cc2)c2sccc2c1=O [Example 31, 7-{4-[3-((2R,5R)-2,5-Dimethyl-pyrrolidin-1-yl)-propoxy]-phenyl}-5-isopropyl-5H-thieno[2,3-d]pyridazin-4-one] | 7.00 to 10.00 | 6.30 to 7.00 |
| CCCn1nc(-c2ccc(OCCCN3[C@H](C)CC[C@H]3C)cc2)c2sccc2c1=O [Example 33, 7-{4-[3-((2R,5R)-2,5-Dimethyl-pyrrolidin-1-yl)-propoxy]-phenyl)-5-propyl-5H-thieno[2,3-d]pyridazin-4-one] | 7.00 to 10.00 | 6.30 to 7.00 |
| CCCn1nc(-c2ccc(OCCCN3CCC[C@H]3CN3CCCC3)cc2)c2sccc2c1=O [Example 36, 5-Propyl-7-{4-[3-((S)-2-pyrrolidin-1-ylmethyl-pyrrolidin-1-yl)-propoxy]-phenyl}-5H-thieno[2,3-d]pyridazin-4-one] | 6.30 to 7.00 | < 6.00 |
| O=c1c2ccsc2c(-c2ccc(OCCCN3CCCCC3)cc2)nn1Cc1ccc(Cl)cc1 [Example 37, 5-(4-Chloro-benzyl)-7-[4-(3-piperidin-1-yl-propoxy)-phenyl]-5H-thieno[2,3-d]pyridazin-4-one] | 7.00 to 10.00 | 6.30 to 7.00 |
| Cc1cc(-c2ccc(OCCCN3CCCCC3)cc2)nn(C)c1=O [Example 39, 2,4-Dimethyl-6-[4-(3-piperidin-1-yl-propoxy)-phenyl]-2H-pyridazin-3-one] | 7.00 to 10.00 | 7.00 to 10.00 |
| Cc1cc(-c2ccc(OCCCN3CCC[C@H]3C)cc2)nn(C(C)C)c1=O [Example 41, 2-Isopropyl-4-methyl-6-{4-[3-((R)-2-methyl-pyrrolidin-1-yl)-propoxy]-phenyl}-2H-pyridazin-3-one] | 7.00 to 10.00 | 7.00 to 10.00 |
| Cc1cc(-c2ccc(OCCCN3CCCCC3)cc2)nn(C(C)C)c1=O [Example 42, 2-Isopropyl-4-methyl-6-[4-(3-piperidin-1-yl-propoxy)-phenyl]-2H-pyridazin-3-one] | 6.30 to 7.00 | 6.30 to 7.00 |
| Cc1cc(-c2ccc(OCCCN3CCC[C@H]3C)cc2)nn(Cc2ccccc2)c1=O [Example 43, 2-Benzyl-4-methyl-6-{4-[3-((R)-2-methyl-pyrrolidin-1-yl)-propoxy]-phenyl}-2H-pyridazin-3-one] | 7.00 to 10.00 | 7.00 to 10.00 |
| C[C@@H]1CCCN1CCCOc1ccc(-c2cc(Cc3ccccc3)c(=O)n(C)n2)cc1 [Example 45, 4-Benzyl-2-methyl-6-{4-[3-((R)-2-methyl-pyrrolidin-1-yl)-propoxy]-phenyl}-2H-pyridazin-3-one] | 7.00 to 10.00 | 7.00 to 10.00 |
| Cn1nc(-c2ccc(OCCCN3CCCCC3)cc2)cc(Cc2ccccc2)c1=O [Example 46, 4-Benzyl-2-methyl-6-[4-(3-piperidin-1-yl-propoxy)-phenyl]-2H-pyridazin-3-one] | 7.00 to 10.00 | 6.30 to 7.00 |
| Cn1nc(-c2ccc(OCCCN3CCCCC3)cc2)c(-c2ccccc2)cc1=O [Example 48, 2-Methyl-5-phenyl-6-[4-(3-piperidin-1-yl-propoxy)-phenyl]-2H-pyridazin-3-one] | 7.00 to 10.00 | 7.00 to 10.00 |
| Cn1nc(-c2ccc(OCCCN3CCCCC3)cc2)c2ccccc2c1=O [Example 50, 2-Methyl-4-[4-(3-piperidin-1-yl-propoxy)-phenyl]-2H-phthalazin-1-one] | 7.00 to 10.00 | 7.00 to 10.00 |

Further lines, results first:

| pKi [1] | pKi [2] | Compound |
| --- | --- | --- |
| 7.00 to 10.00 | 6.00 to 6.30 | C[C@@H]1CCCN1CCCOc1ccc(-n2ncccc2=O)cc1 [Example 21, 2-{4-[3-((R)-2-Methyl-pyrrolidin-1-yl)-propoxy]-phenyl}-2H-pyridazin-3-one] |
| 7.00 to 10.00 | < 6.00 | COC[C@@H]1CCCN1CCCOc1ccc(-c2nn(C(C)C)c(=O)c3ccsc23)cc1 [Example 26, 5-Isopropyl-7-{4-[3-((S)-2-methoxymethyl-pyrrolidin-1-yl)propoxy]-phenyl}-5H-thieno[2,3-d]pyridazin-4-one] |
| < 6.00 | < 6.00 | COC[C@H]1CCCN1CCCOc1ccc(-c2nn(C(C)C)c(=O)c3ccsc23)cc1 [Example 27, 5-Isopropyl-7-{4-[3-((R)-2-methoxymethyl-pyrrolidin-1-yl)-propoxy]-phenyl}-5H-thieno[2,3-d]pyridazin-4-one] |
| 7.00 to 10.00 | 6.30 to 7.00 | CCN(CC)CCCOc1ccc(-c2nn(C(C)C)c(=O)c3ccsc23)cc1 [Example 28, 7-[4-(3-Diethylamino-propoxy)-phenyl]-5-isopropyl-5H-thieno[2,3-d]pyridazin-4-one] |
| 7.00 to 10.00 | 7.00 to 10.00 | CC(C)n1nc(-c2ccc(OCCCN3CCCC3)cc2)c2sccc2c1=O [Example 29, 5-Isopropyl-7-[4-(3-pyrrolidin-1-yl-propoxy)-phenyl]-5H-thieno[2,3-d]-pyridazin-4-one] |
| 7.00 to 10.00 | 7.00 to 10.00 | CCCn1nc(-c2ccc(OCCCN3CCC[C@H]3C)cc2)c2sccc2c1=O [Example 32, 7-{4-[3-((R)-2-Methyl-pyrrolidin-1-yl)-propoxy]phenyl}-5-propyl-5H-thieno[2,3-d]pyridazin-4-one] |
| 7.00 to 10.00 | 7.00 to 10.00 | CCCn1nc(-c2ccc(OCCCN3CCC(C)CC3)cc2)c2sccc2c1=O [Example 34, 7-{4-[3-(4-Methyl-piperidin-1-yl)-propoxy]-phenyl}-5-propyl-5H-thieno[2,3-d]pyridazin-4-one] |
| 6.30 to 7.00 | 6.30 to 7.00 | CCCn1nc(-c2ccc(OCCCN3CCC(N(C)C)CC3)cc2)c2sccc2c1=O [Example 35, 7-{4-[3-(4-Dimethylamino-piperidin-1-yl)-propoxy]-phenyl}-5-propyl-5H-thieno[2,3-d]pyridazin-4-one] |
| 7.00 to 10.00 | 7.00 to 10.00 | C[C@@H]1CCCN1CCCOc1ccc(-c2nn(Cc3ccc(Cl)cc3)c(=O)c3ccsc23)cc1 [Example 38, 5-(4-Chloro-benzyl)-7-{4-[3-((R)-2-methyl-pyrrolidin-1-yl)-propoxy]-phenyl}-5H-thieno[2,3-d]pyridazin-4-one] |
| 7.00 to 10.00 | 7.00 to 10.00 | Cc1cc(-c2ccc(OCCCN3CCC[C@H]3C)cc2)nn(C)c1=O [Example 40, 2,4-Dimethyl-6-{4-[3-((R)-2-methyl-pyrrolidin-1-yl)-propoxy]-phenyl}-2H-pyridazin-3-one] |
| 7.00 to 10.00 | 6.30 to 7.00 | Cc1cc(-c2ccc(OCCCN3CCCCC3)cc2)nn(Cc2ccccc2)c1=O [Example 44, 2-Benzyl-4-methyl-6-[4-(3-piperidin-1-yl-propoxy)-phenyl]-2H-pyridazin-3-one] |
| 7.00 to 10.00 | 7.00 to 10.00 | C[C@@H]1CCCN1CCCOc1ccc(-c2nn(C)c(=O)cc2-c2ccccc2)cc1 [Example 47, 2-Methyl-6-{4-[3-((R)-2-methyl-pyrrolidin-1-yl)-propoxy]-phenyl}-5-phenyl-2H-pyridazin-3-one] |
| 7.00 to 10.00 | 7.00 to 10.00 | C[C@@H]1CCCN1CCCOc1ccc(-c2nn(C)c(=O)c3ccccc23)cc1 [Example 49, 2-Methyl-4-{4-[3-((R)-2-methyl-pyrrolidin-1-yl)-propoxy]-phenyl}-2H-phthalazin-1-one] |
| 7.00 to 10.00 | < 6.00 | Cn1nc(-c2ccc(OCCN3CCCCC3)cc2)c2ccccc2c1=O [Example 51, 2-Methyl-4-[4-(2-piperidin-1-yl-ethoxy)-phenyl]-2H-phthalazin-1-one] |
